Assay results from US20240139153A1, “Inhibition of Endothelial ETS Family Transcription Factors Promotes Flow-Dependent Ocular Vessel Regression” (Oklahoma Medical Research Foundation, priority 2020, published 2024).

What was measured:
ROP = settings: intravitreal injection, randomized study; cited from earlier work
retinal neovessels = settings: OIR mice
From the text: OIR Studies/Quantification. […] Generally, pups with their dams were maintained in room air from birth until P7. From P7 to P12 pups were exposed to 75% O2 in an oxygen chamber regulated by an OxyCycler Model A84. After 2.5 d of oxygen exposure, the dams were replaced with healthy lactating dams to prevent oxygen toxicity. At P12 pups were returned to room air until P18.
Two days after the injection, P20 mice were euthanized and retinas were dissected and immunostained for CD31 to quantify retinal vascular area as previously described^45.

healthy retinal vessels = test: Healthy retinal vessels of adult wild type mice after intravitreal injection; assay type: in vivo; settings: 48 hr after intraocular injection
From the text: Vascular length (FIG. 8B; n=4) and branch points (FIG. 8C; n=4) from retinas treated as in (FIG. 8A) were quantified using AutoTube and normalized to retinal area per image. NS=not significant (two-tailed Student's t-test). Error bars=S.D.

HUVECs = test: HUVEC flow chamber study, static versus flow; assay type: cell-based, Human
Description: Cell Culture/Flow Studies. Flow-based cell culture was performed using HUVECs (ATCC; #PCS-100-010) cultured in complete EGM-2 media (Lonza). HUVECs were cultured on Ibidi Luer^0,6 flow slides and allowed to grow at 37° C. in 5% CO2 for 24 h to a confluency of 80-90%. Slides were then attached to an Ibidi pump system with Perfusion Set Red (1.6 mm, #10962) and exposed to a sheer stress of 10 dyn/cm^2 for 24 h. Static conditions were achieved by similarly plating HUVECs in flow slides that were not exposed to flow. […] Cells were gently washed with 1 mL ice-cold PBS, then fixed and permeabilized by incubation with ice-cold methanol for 5 min. Fixed cells were treated with 1% BSA, 0.02% Triton X-100 for 1 hr at room temperature. Primary and secondary antibodies were added in 1% BSA and incubated for 2 hr at room temperature.
HUVECs grown in this 3D culture model form vascular lumens despite the absence of blood flow. […] This possibility is supported by a recent report that the transcriptional consequences of ERG inhibition are greatly mitigated in ECs exposed to sheer stress^58.

3D HUVEC cultures = test: Vasculogenic 3D collagen assay, regression of 3D lumenized HUVEC cultures; assay type: cell-based, Human
Description: Vasculogenic 3D collagen assays. Human Umbilical Vein ECs were purchased from Lonza and used from passages 3 to 6 as previously described^42,43. ECs were suspended in 2.5 mg/mL collagen type I matrices, and assays were performed as described^42,43. With the exception that the culture media contained reduced serum supplement (RSII), ascorbic acid, FGF-2, Stem cell factor (SCF) at 40 ng/ml and interleukin-3 (IL-3) were added at 40 ng/ml. Stromal-derived factor-1α (SDF-1α) was added at 200 ng/ml into collagen type I matrices. Cultures were incubated at 37° C. in serum-free defined media and allowed to assemble over time. Cultures were fixed at 72 hr with 3% glutaraldehyde before staining with 0.1% toluidine blue in 30% methanol for nonfluorescent visualization. Lumen area was quantified by using Metamorph software as previously described^42,43. Individual data points were obtained from a triplicate wells and a minimum of 12 independent fields from these wells.
Bioassays with pharmacologic agents and cytokines. […] In some assays, triplicate wells were lysed with sample buffer and Western blots were performed to probe for pro-caspase 3 and actin.
YK-4-279 promotes flow-dependent vascular regression in vitro. […] Importantly, this culture model recapitulates many aspects of in vivo vessel morphology and has previously been used to model vascular regression^40.

hyaloid vessels = test: Hyaloid vessel regression after intravitreal injection; assay type: in vivo, mice; settings: intravitreal injection at P5, assessed at P7, versus vehicle-injected littermate controls; final concentration ~10 μmol/L in vitreous
Description: Hyaloid Dissection and Quantification. Hyaloid were dissected and quantified as described previously. Briefly, eyes were enucleated from P4-P8 mice and fixed for 30 min in 4% paraformaldehyde (PFA). The eyes were then transferred to PBS and dissected by removal of the lens and sclera leaving the retinal cup in which the hyaloids were loosely wrapped around the lens. The lens was then carefully removed from which the hyaloids were gently removed. The hyaloids were then transferred in a drop of PBS and flat mounted for imaging by carefully removing the remaining PBS.
Quantification of hyaloid regression was accomplished by drawing an outline of hyaloid flat mounts (labeled with Isolectin-B4) which was then decreased in size by 50% and centered over the hyaloid flat mount. Blind counts of hyaloid vessel number were performed by counting the number of vessels which crossed the 50% outline.
Hyperthermia-induced anesthesia of wild type P5 mice was accomplished by submerging pups in ice for 5-8 min after placing them in a latex blanket wrapped in foil to avoid direct contact between the pup and ice. Once anesthetized (assessed by toe pinch) eyes were administered a drop of proparacaine hydrochloride ophthalmic solution (Akorn), followed by gentle exposure of the eye globe. […] Eyelids were then reclosed around the eye, and erythromycin ophthalmic ointment (Akorn) was applied. […]

[1] = inhibitor-injected eye relative to control eye

effects on retinal vascularization (vascular length, branch points) (healthy retinal vessels) | active caspase-3 staining (HUVECs; flow conditions, 10 dyn/cm^2) | active caspase-3 staining (HUVECs; static conditions, 5 μM, 24 hr) | Molecule | efficacy versus conventional laser-based therapy for treating ROP (ROP) | mice showing an increase in neovessels (retinal neovessels; [1]) | mice with a decrease in retinal neovascular area (retinal neovessels; [1]) | decrease in the retinal avascular area (retinal neovessels; intravitreal injection at P18, analysed at P20, versus vehicle) [%] | reduction in retinal neovascular area (retinal neovessels; intravitreal injection at P18, analysed at P20, versus vehicle-injected contralateral eye) [%] | alignment of HUVECs in the direction of flow (HUVECs; flow conditions, 10 dyn/cm^2) | cell number (HUVECs; flow conditions, 10 dyn/cm^2) | cell number (HUVECs; static conditions, 5 μM, 24 hr) | concentrations giving significant, dose-dependent loss of vascular luminal area (3D HUVEC cultures; 3D HUVEC cultures, 48 h treatment, toluidine blue stain) | pro-caspase 3 signal (Western blot) (3D HUVEC cultures; 3D HUVEC cultures, FIG. 5C) | extent of vascular regression (3D HUVEC lumen area) on co-incubation with cytokines (3D HUVEC cultures; co-incubation of TNFα or IL1β with YK-4-279, versus YK-4-279 alone) | reduction in hyaloid vessel number (hyaloid vessels) [%]
 |  |  | bevacizumab: a monoclonal VEGF-A antibody | more effective |  |  |  |  |  |  |  |  |  |  | 
no effects | no apparent effect | increased active caspase-3 staining | COc1ccc(C(=O)CC2(O)C(=O)Nc3c(Cl)ccc(Cl)c32)cc1 (stereo not drawn) [YK-4-279] |  | one | 9 out of 11 | ~60 | ~40 | inhibited the alignment | no apparent effect | significantly reduced cell numbers | greater than 1.25 μM | Reduced pro-caspase 3 signal | further increases the extent of vascular regression | ~40
